# Assay results published in ChEMBL document CHEMBL4665804, “Characterization of SPK 98, a Torin2 analog, as ATR and mTOR dual kinase inhibitor” (Bioorg Med Chem Lett, 2020).
# Active and inactive are the calls of the source. The rule behind the calls is not given here.
# Legend:
# [1] = target: Serine/threonine-protein kinase ATR (Homo sapiens) (UniProt Q13535); experiment: Inhibition of ATR in human HCT116 cells assessed as decrease in Chk1 phosphorylation at Ser317 residue by measuring decrease in foci formation at 50 nM treated for 1 hr prior to UV-irradiation exposure and measured after 1 hr by Immunofluorescence analysis; type: cell-based; details: HCT-116, time 2.0 hrs
# [2] = target: Serine/threonine-protein kinase ATR (Homo sapiens) (UniProt Q13535); experiment: Inhibition of ATR in human HCT116 cells assessed as decrease in Chk1 phosphorylation at Ser317 residue at 250 nM treated for 1 hr prior to UV-irradiation exposure and measured after 1 hr by Immunoblot analysis; type: cell-based; details: HCT-116, time 2.0 hrs
# [3] = target: T1, Serine-protein kinase ATM (Homo sapiens, UniProt Q13315); experiment: Inhibition of ATM in human HCT116 cells assessed as decrease in gammaH2AX phosphorylation at Ser139 residue by measuring decrease in foci formation at 50 nM treated for 1 hr prior to UV-irradiation exposure and measured after 1 hr by immunofluorescence assay; type: cell-based; details: hct-116, 2 h, 0.05 µM
# [4] = target: Serine/threonine-protein kinase mTOR (Homo sapiens) (UniProt P42345); experiment: Inhibition of mTOR in human HCT116 cells assessed as decrease in p70S6K phosphorylation at Thr389 residue at 250 nM treated for 1 hr prior to UV-irradiation exposure and measured after 1 hr by immunoblot analysis; type: cell-based; details: HCT-116, time 2.0 hrs
# HCT-116 [5] = experiment: Growth inhibition of human HCT116 cells measured after 72 hrs by Celltiter-Glo assay; type: functional
# [6] = target: Serine/threonine-protein kinase mTOR (Homo sapiens) (UniProt P42345); experiment: Inhibition of mTOR in human HCT116 cells assessed as decrease in p70S6K phosphorylation at Thr389 residue at 50 nM treated for 1 hr prior to UV-irradiation exposure and measured after 1 hr by immunoblot analysis; type: cell-based; details: HCT-116, time 2.0 hrs
# HeLa = experiment: Growth inhibition of human HeLa cells measured after 72 hrs by Celltiter-Glo assay; type: functional
# HCT-116 [7] = experiment: Inhibition of ATR/mTOR in human HCT116 cells harboring ATM+/-p53+/+ gene allele assessed as premature chromatin condensation at 50 nM treated for 1 hr prior to UV-irradiation exposure and measured after 1 hr by DAPI staining based confocal microscopic method; type: cell-based; details: time 2.0 hrs
# [8] = Intrinsic clearance in mouse liver microsome; type: ADME; details: liver microsomes, read-out: CLH
# [9] = Aqueous solubility of the compound; type: physicochemical
# [10] = Half life in mouse liver microsome; type: ADME; details: liver microsomes
# [11] = target: T1, Serine-protein kinase ATM; experiment: Inhibition of ATM in human HCT116 cells assessed as decrease in Chk2 phosphorylation at Thr68 residue by measuring decrease in foci formation at 50 nM treated for 1 hr prior to UV-irradiation exposure and measured after 1 hr by immunofluorescence assay; type: cell-based; details: hct-116, 2 h, 0.05 µM
# [12] = Intrinsic clearance in human liver microsome; type: ADME; details: liver microsomes, read-out: CLH
# [13] = Intrinsic clearance in rat liver microsome; type: ADME; details: liver microsomes, read-out: CLH
# [14] = Stability in mouse liver microsomes assessed as proportion of drug metabolized measured after 30 mins; type: ADME, Microsome; details: read-out: Drug metabolism
# [15] = Half life in rat liver microsome; type: ADME; details: liver microsomes
# [16] = Aqueous solubility of the compound relative to Torin2; type: physicochemical; details: buffer
# [17] = Half life in human liver microsome; type: ADME; details: liver microsomes
# [18] = Stability in human liver microsomes assessed as proportion of drug metabolized measured after 30 mins; type: ADME, Microsome; details: read-out: Drug metabolism
# [19] = Stability in rat liver microsomes assessed as proportion of drug metabolized measured after 30 mins; type: ADME, Microsome; details: read-out: Drug metabolism
# T1 sequence (Q13315 whole entry): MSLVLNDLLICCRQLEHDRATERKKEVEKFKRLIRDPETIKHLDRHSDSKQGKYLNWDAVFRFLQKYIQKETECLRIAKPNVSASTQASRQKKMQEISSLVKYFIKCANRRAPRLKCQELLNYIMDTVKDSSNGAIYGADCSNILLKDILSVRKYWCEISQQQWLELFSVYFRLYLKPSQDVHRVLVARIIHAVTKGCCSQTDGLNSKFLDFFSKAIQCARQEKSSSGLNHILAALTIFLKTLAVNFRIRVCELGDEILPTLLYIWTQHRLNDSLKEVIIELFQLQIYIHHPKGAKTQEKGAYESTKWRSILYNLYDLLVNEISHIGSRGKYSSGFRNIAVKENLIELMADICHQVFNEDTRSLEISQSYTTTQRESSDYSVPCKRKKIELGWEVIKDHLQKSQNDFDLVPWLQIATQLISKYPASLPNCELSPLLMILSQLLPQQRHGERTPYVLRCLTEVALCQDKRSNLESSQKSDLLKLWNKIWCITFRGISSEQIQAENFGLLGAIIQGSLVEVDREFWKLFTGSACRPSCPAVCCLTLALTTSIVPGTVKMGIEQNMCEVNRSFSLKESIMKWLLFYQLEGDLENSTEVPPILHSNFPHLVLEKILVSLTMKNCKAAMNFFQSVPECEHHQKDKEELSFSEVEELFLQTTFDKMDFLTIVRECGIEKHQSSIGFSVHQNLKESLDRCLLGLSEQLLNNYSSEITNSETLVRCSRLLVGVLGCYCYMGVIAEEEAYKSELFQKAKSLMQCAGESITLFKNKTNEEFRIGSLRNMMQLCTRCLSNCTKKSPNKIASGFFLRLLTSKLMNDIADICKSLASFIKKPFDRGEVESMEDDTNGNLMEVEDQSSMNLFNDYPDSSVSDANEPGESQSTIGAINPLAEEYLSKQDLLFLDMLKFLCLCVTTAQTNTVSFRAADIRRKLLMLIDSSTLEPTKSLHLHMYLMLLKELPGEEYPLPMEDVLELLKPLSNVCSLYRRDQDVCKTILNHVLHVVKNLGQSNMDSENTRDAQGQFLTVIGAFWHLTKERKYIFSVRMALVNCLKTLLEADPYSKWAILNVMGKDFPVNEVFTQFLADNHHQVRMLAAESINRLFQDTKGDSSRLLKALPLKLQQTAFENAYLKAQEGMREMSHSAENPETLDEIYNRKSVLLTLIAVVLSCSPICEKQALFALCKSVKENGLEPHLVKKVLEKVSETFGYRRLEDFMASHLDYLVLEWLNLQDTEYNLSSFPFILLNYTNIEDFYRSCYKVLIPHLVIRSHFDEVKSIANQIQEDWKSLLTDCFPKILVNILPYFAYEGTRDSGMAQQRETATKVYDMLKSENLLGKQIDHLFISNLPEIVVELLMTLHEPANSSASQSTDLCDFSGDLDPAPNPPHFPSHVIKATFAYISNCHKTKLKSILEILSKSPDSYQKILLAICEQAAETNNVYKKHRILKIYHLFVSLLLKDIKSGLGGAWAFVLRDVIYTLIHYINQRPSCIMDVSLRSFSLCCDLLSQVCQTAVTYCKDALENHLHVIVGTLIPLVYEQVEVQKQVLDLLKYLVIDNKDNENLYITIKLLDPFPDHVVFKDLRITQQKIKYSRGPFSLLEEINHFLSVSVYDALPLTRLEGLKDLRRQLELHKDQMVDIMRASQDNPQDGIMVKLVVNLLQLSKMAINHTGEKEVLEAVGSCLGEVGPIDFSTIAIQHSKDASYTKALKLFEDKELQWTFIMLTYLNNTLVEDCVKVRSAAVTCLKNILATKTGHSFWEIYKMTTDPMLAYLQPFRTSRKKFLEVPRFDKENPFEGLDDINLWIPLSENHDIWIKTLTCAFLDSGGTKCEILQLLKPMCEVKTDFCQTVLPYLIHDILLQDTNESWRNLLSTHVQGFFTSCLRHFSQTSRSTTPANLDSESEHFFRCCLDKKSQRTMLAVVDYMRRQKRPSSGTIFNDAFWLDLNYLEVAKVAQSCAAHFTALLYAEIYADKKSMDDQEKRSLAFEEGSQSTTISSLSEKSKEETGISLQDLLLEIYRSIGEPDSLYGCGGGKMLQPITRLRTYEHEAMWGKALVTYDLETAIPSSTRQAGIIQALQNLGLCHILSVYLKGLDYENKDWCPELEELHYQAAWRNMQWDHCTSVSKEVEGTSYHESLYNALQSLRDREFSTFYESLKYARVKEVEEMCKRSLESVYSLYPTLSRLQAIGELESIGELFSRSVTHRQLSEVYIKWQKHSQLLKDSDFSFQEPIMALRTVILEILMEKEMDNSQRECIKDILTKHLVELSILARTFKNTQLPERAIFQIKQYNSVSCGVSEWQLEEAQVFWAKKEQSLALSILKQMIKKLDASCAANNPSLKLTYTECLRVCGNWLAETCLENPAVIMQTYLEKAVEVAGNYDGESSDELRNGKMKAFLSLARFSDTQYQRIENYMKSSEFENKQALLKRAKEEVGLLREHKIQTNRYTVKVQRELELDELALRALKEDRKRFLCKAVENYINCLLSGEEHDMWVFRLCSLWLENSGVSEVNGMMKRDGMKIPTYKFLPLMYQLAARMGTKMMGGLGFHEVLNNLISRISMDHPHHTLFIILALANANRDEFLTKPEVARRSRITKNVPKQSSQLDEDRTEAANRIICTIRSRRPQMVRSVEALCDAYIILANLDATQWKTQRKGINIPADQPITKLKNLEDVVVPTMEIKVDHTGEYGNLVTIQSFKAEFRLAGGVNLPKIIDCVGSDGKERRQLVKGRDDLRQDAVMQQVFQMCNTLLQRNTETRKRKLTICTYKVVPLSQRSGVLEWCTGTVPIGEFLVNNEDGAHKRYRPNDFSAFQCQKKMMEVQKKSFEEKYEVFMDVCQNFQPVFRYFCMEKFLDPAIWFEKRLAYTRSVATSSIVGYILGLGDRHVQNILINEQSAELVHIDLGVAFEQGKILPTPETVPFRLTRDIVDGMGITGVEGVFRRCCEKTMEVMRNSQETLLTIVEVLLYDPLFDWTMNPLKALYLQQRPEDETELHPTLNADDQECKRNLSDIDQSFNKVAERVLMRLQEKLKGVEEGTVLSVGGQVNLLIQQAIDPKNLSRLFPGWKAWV
inhibition [1],inhibition [2],inhibition (INH) [3],inhibition [4],GI50 (HCT-116 [5]),inhibition [6],GI50 (HeLa),microsomal CLint [8],solubility [9],half-life [10],inhibition (INH) [11],microsomal CLint [12],microsomal CLint [13],metabolised at 0.5 h [14],half-life [15],fold change (FC) [16],half-life [17],metabolised at 0.5 h [18],metabolised at 0.5 h [19],SMILES,inhibition (HCT-116 [7])
inactive,Active,Not Active,Active,135 nM,Active,121 nM,–,–,–,–,–,–,–,–,–,–,–,–,Nc1cnc(-c2ccc3ncc4ccc(=O)n(-c5cccc(C(F)(F)F)c5)c4c3c2)cn1,–
Active,–,–,–,32.2 nM,–,98 nM,–,–,–,–,–,–,–,–,–,–,–,–,Nc1ccc(-c2ccc3ncc4ccc(=O)n(-c5cccc(C(F)(F)F)c5)c4c3c2)cn1,Active
–,Active,–,–,800 nM,Active,330 nM,–,–,–,–,–,–,–,–,–,–,–,–,O=c1ccc2cnc3ccc(-c4ccc(N5CCOCC5)nc4)cc3c2n1-c1cccc(C(F)(F)F)c1,–
Active,100%,Not Active,–,56 nM,Active,50.4 nM,9 µL/min/mg,22 µM,157 min,Not Active,44 µL/min/mg,33 µL/min/mg,11%,42 min,10,31 min,55%,41%,O=c1ccc2cnc3ccc(-c4ccc(N5CCNCC5)nc4)cc3c2n1-c1cccc(C(F)(F)F)c1,Active
–,Active,–,–,1420 nM,Active,–,–,–,–,–,–,–,–,–,–,–,–,–,CS(=O)(=O)Nc1ccc(-c2ccc3ncc4ccc(=O)n(-c5cccc(C(F)(F)F)c5)c4c3c2)cn1,–
